Laboratory results reported in US7632783B2 (priority 2004, dated 2009).

Legend:
[1] = system: gray mold (Botrytis cinerea); assay: Tomato gray mold control test (preventive effects); type: in vivo; conditions: potted tomato (giant Fukuju variety), spraying liquid 300 ppm before spore inoculation, investigated 2 days after inoculation, levels 0 to 3
Experimental: Bulk drug was dissolved in a mixed solution of dimethylsulfoxide and methanol (volume ratio: 7/3), and spraying liquids containing 300 ppm of compounds of the present invention were uniformly sprayed onto potted test plants (tomato: giant Fukuju variety) in the second to third leaf stage. […], a suspension of pathogen spores were inoculated by spraying onto the pots in an inoculation room at a room temperature of 20 to 23° C. to promote the onset of disease. The degree of disease onset was investigated 2 days after inoculation. The test was carried out in duplicate.
Furthermore, the degree of disease onset was evaluated to one of four levels from 0 to 3 according to the criteria below by macroscopically observing the degree of disease onset of the test plants.
1: Degree of disease onset less than 40% of the untreated area
2: Degree of disease onset 40% to less than 80% of the untreated area
3: Degree of disease onset 80% or more

[2] = system: rice blast (Pyricularia oryzae); type: in vivo; conditions: potted rice (variety Karakaze), spraying liquid 300 ppm after spore inoculation, observed 7 days after inoculation, levels 0 to 3

Structure (SMILES) | degree of disease onset [1] | degree of disease onset [2]
CC1(C)N=C(c2cnc3ccccc3c2)c2cccc(F)c2C1(F)F [Example 178, 3-(4,4,5-trifluoro-3,3-dimethyl-3,4-dihydroisoquinolin-1-yl)quinoline] | 0 | 0
Fc1ccc(C2(CCl)Cc3ccccc3C(c3cnc4ccccc4c3)=N2)cc1 (stereo not drawn) [Example 75, 3-[3-chloromethyl-3-(4-fluorophenyl)-3,4-dihydroisoquinolin-1-yl]quinoline] | 0 | 0
CC1(C)c2cc(F)ccc2C2(c3cnc4ccccc4c3)ON2C1(C)C (stereo not drawn) [Example 199, 6-fluoro-3,3,4,4-tetramethyl-8b-quinolin-3-yl-4,8b-dihydro-3H-oxazileno[3,2-a]isoquinoline] | 0 | 0
CC1(C)c2ccccc2C(c2cnc3ccccc3c2)=[N+]([O-])C1(C)C [Example 207, 3-(3,3,4,4-tetramethyl-2-oxide-3,4-dihydroisoquinolin-1-yl)quinoline] | 0 | 0
CC1(Cc2ccccc2)Cc2ccccc2C(c2cnc3ccccc3c2)=N1 (stereo not drawn) [Example 79, 3-(3-Benzyl-3-methyl-3,4-dihydroisoquinolin-1-yl)quinoline] | 0 | 0
CC1(c2ccc(Cl)cc2)Cc2ccccc2C(c2cnc3ccccc3c2)=N1 (stereo not drawn) [Example 73, 3-[3-(4-chlorophenyl)-3-methyl-3,4-dihydroisoquinolin-1-yl]quinoline] | 0 | 0
CC1(C)Cc2c(Br)cccc2C(c2cnc3ccccc3c2)=N1 [Example 22, 3-(5-bromo-3,3-dimethyl-3,4-dihydroisoquinolin-1-yl)quinoline] | 0 | 0
CC1(C)Cc2c(F)cccc2C(c2cnc3ccccc3c2)=N1.O=C(O)/C=C/C(=O)O [Example 109, 3-(5-fluoro-3,3-dimethyl-3,4-dihydroisoquinolin-1-yl)quinoline fumarate] | 0 | 0
CC1(C)Cc2c(F)cccc2C(c2cnc3ccccc3c2)=N1.CS(=O)(=O)O [Example 107, 3-(5-fluoro-3,3-dimethyl-3,4-dihydroisoquinolin-1-yl)quinoline methanesulfonate] | 0 | 0
Clc1ccc2c(c1)CC1(CCCCC1)N=C2c1cnc2ccccc2c1 [Example 92, 6′-chloro-1′-quinolin-3-yl-4′H-spiro[cyclohexane-1,3′-isoquinoline]] | 0 | 
CC1(C)Cc2cc(Br)ccc2C(c2cnc3ccccc3c2)=N1 [Example 23, 3-(6-bromo-3,3-dimethyl-3,4-dihydroisoquinolin-1-yl)quinoline] | 0 | 
CC1(C)[N+]([O-])=C(c2cnc3ccccc3c2)c2cccc(F)c2C1(F)F [Example 219, 3-(4,4,5-trifluoro-3,3-dimethyl-2-oxide-3,4-dihydroisoquinolin-1-yl)quinoline] | 0 | 0
CC1(C)N=C(c2cnc3c(F)cccc3c2)c2cccc(F)c2C1(C)C [Example 164, 3-(5-fluoro-3,3,4,4-tetramethyl-3,4-dihydroisoquinolin-1-yl)-8-fluoroquinoline] | 0 | 0
CC1(C)N=C(c2cnc3ccccc3c2)c2cccc(F)c2C1(C)C.CS(=O)(=O)O [Example 159, 3-(5-fluoro-3,3,4,4-tetramethyl-3,4-dihydroisoquinolin-1-yl)quinoline methanesulfonate] | 0 | 
CC1c2c(F)cccc2C(c2cnc3ccccc3c2)=NC1(C)C (stereo not drawn) [Example 120, 3-(5-fluoro-3,3,4-trimethyl-3,4-dihydroisoquinolin-1-yl)quinoline] | 0 | 
CC1(C)Cc2c(cccc2-c2ccsc2)C(c2cnc3ccccc3c2)=N1 [Example 33, 3-[5-(3-thienyl)-3,3-dimethyl-3,4-dihydroisoquinolin-1-yl]quinoline] |  | 0
CC(C)CC1(C)Cc2ccccc2C(c2cnc3ccccc3c2)=N1 (stereo not drawn) [Example 60, 3-(3-isobutyl-3-methyl-3,4-dihydroisoquinolin-1-yl)quinoline] |  | 0
CC1c2c(Cl)cccc2C(c2cnc3ccccc3c2)=NC1(C)C (stereo not drawn) [Example 121, 3-(5-chloro-3,3,4-trimethyl-3,4-dihydroisoquinolin-1-yl)quinoline] | 0 | 
CC1c2ccccc2C(c2cnc3ccccc3c2)=NC1(C)C (stereo not drawn) [Example 119, 3-(3,3,4-trimethyl-3,4-dihydroisoquinolin-1-yl)quinoline] |  | 0
FC(F)(F)C1(c2ccccc2)Cc2ccccc2C(c2cnc3ccccc3c2)=N1 (stereo not drawn) [Example 74, 3-(3-trifluoromethyl-3-phenyl-3,4-dihydroisoquinolin-1-yl)quinoline] |  | 0

Structure (SMILES) | degree of disease onset [1] | degree of disease onset [2]
CC1(C)Cc2cc(Cl)ccc2C(c2cnc3ccccc3c2)=N1 [Example 20, 3-(6-chloro-3,3-dimethyl-3,4-dihydroisoquinolin-1-yl)quinoline] | 0 | 
CN1C(c2cnc3ccccc3c2)c2cccc(F)c2C(C)(C)C1(C)C (stereo not drawn) [Example 191, 3-(5-fluoro-2,3,3,4,4-pentamethyl-1,2,3,4-tetrahydroisoquinoline-1-yl)quinoline] | 0 | 
CC(C)C1(C)Cc2ccccc2C(c2cnc3ccccc3c2)=N1 (stereo not drawn) [Example 59, 3-(3-isopropyl-3-methyl-3,4-dihydroisoquinolin-1-yl)quinoline] |  | 0
COC1(C)c2c(F)cccc2C(c2cnc3ccccc3c2)=NC1(C)C (stereo not drawn) [Example 183, 3-(5-fluoro-4-methoxy-3,3,4-trimethyl-3,4-dihydroisoquinolin-1-yl)quinoline] |  | 0
C=C1c2c(F)cccc2C(c2cnc3ccccc3c2)=NC1(C)C [Example 175, 3-(5-fluoro-3,3-dimethyl-4-methylene-3,4-dihydroisoquinolin-1-yl)quinoline] | 0 | 
CC1(C)Cc2ccccc2C(c2cnc3c(F)cccc3c2)=N1 [Example 7, 3-(3,3-dimethyl-3,4-dihydroisoquinolin-1-yl)-8-fluoroquinoline] |  | 0
CC1(C)Cc2c(cccc2C(F)F)C(c2cnc3ccccc3c2)=N1 [Example 132, 3-(5-difluoromethyl-3,3-dimethyl-3,4-dihydroisoquinolin-1-yl)quinoline] |  | 0
Fc1ccc2c(c1)CC1(CCCC1)N=C2c1cnc2ccccc2c1 [Example 82, 6′-fluoro-1′-quinolin-3-yl-4′H-spiro[cyclopentane-1,3′-isoquinoline]] |  | 0
CC1(C)Cc2cc(F)ccc2C(c2cnc3ccccc3c2)=N1 [Example 16, 3-(6-fluoro-3,3-dimethyl-3,4-dihydroisoquinolin-1-yl)quinoline] |  | 0
CCC1(C)Cc2ccccc2C(c2cnc3ccccc3c2)=N1 (stereo not drawn) [Example 55, 3-(3-ethyl-3-methyl-3,4-dihydroisoquinolin-1-yl)quinoline] |  | 0
CCCC1(C)Cc2ccccc2C(c2cnc3ccccc3c2)=N1 (stereo not drawn) [Example 57, 3-(3-methyl-3-propyl-3,4-dihydroisoquinolin-1-yl)quinoline] |  | 0
CC(C)CCC1(C)Cc2ccccc2C(c2cnc3ccccc3c2)=N1 (stereo not drawn) [Example 62, 3-(3-isopentyl-3-methyl-3,4-dihydroisoquinolin-1-yl)quinoline] |  | 0
CCON=C(C)c1cccc2c1CC(C)(C)N=C2c1cnc2ccccc2c1 [Example 38, 1-(3,3-dimethyl-1-quinolin-3-yl-3,4-dihydroisoquinolin-5-yl)ethanone=O-ethyloxime] |  | 0
CC1(C)N=C(c2cnc3ccccc3c2)c2ccc(Cl)cc2C1(C)C [Example 154, 3-(6-chloro-3,3,4,4-tetramethyl-3,4-dihydroisoquinolin-1-yl)quinoline] | 0 | 
CC(=NOc1ccccc1)c1cccc2c1CC(C)(C)N=C2c1cnc2ccccc2c1 [Example 44, 1-(3,3-dimethyl-1-quinolin-3-yl-3,4-dihydroisoquinolin-5-yl)ethanone=O-phenyloxime] | 0 | 
CC1(C)Cc2c(ccc(Cl)c2Cl)C(c2cnc3ccccc3c2)=N1 [Example 53, 3-(5,6-dichloro-3,3-dimethyl-3,4-dihydroisoquinolin-1-yl)quinoline] | 0 | 
CON=Cc1cccc2c1CC(C)(C)N=C2c1cnc2ccccc2c1 [Example 117, 1-(3,3-dimethyl-1-quinolin-3-yl-3,4-dihydroisoquinolin-5-yl)methanone=O-methyloxime] |  | 0
Cc1cccc2c1C(C)(C)C(C)(C)N=C2c1cnc2ccccc2c1 [Example 160, 3-(3,3,4,4,5-pentamethyl-3,4-dihydroisoquinolin-1-yl)quinoline] |  | 0
CC1(C)Cc2c(F)cccc2C(c2cnc3ccccc3c2)=[N+]1[O-] [Example 208, 3-(5-fluoro-3,3-dimethyl-2-oxide-3,4-dihydroisoquinolin-1-yl)quinoline] |  | 0
CC1(C)N=C(c2cnc3ccccc3c2)c2cccc(Cl)c2C1(C)C [Example 123, 3-(5-chloro-3,3,4,4-tetramethyl-3,4-dihydroisoquinolin-1-yl)quinoline] | 0 | 
